Measured values from the supplement of paper PMC11451515.

System: SEM cells
Assay: cell viability relative to DMSO control; higher = less cytotoxic
Conditions: 48 h
How it was run: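 Viability is expressed as a percentage of DMSO wells within each plate, and cell-free wells serve as background. Seeding densities in the 1536-well plates (5 μl) were 500 cells/well for NOMO1 or SEM leukemia cells and 1000 cells/well for P12-Ichikawa. Each line was adapted for at least four passages in each medium. Library compounds in DMSO were pin-dosed at 47 μM to 0.79 nM (11 points, threefold), and CellTiter-Glo One luminescence was read after 48 h at 37°C.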

[1] = HPLM + 10% dialyzed FBS, 0.000781 µM
[2] = HPLM + 10% dialyzed FBS, 0.00234 µM
[3] = HPLM + 10% dialyzed FBS, 0.00702 µM
[4] = HPLM + 10% dialyzed FBS, 0.0211 µM
[5] = HPLM + 10% dialyzed FBS, 0.0632 µM
[6] = HPLM + 10% dialyzed FBS, 0.19 µM
[7] = HPLM + 10% dialyzed FBS, 0.569 µM
[8] = HPLM + 10% dialyzed FBS, 1.71 µM
[9] = HPLM + 10% dialyzed FBS, 5.12 µM
[10] = HPLM + 10% dialyzed FBS, 15.4 µM
[11] = HPLM + 10% dialyzed FBS, 46.1 µM

SMILES | cell viability [1] | cell viability [2] | cell viability [3] | cell viability [4] | cell viability [5] | cell viability [6] | cell viability [7] | cell viability [8] | cell viability [9] | cell viability [10] | cell viability [11] | cell viability (RPMI 5 mM glucose + 10% FBS, 0.000781 µM) | cell viability (RPMI 5 mM glucose + 10% FBS, 0.00234 µM) | cell viability (RPMI 5 mM glucose + 10% FBS, 0.00702 µM) | cell viability (RPMI 5 mM glucose + 10% FBS, 0.0211 µM) | cell viability (RPMI 5 mM glucose + 10% FBS, 0.0632 µM) | cell viability (RPMI 5 mM glucose + 10% FBS, 0.19 µM) | cell viability (RPMI 5 mM glucose + 10% FBS, 0.569 µM) | cell viability (RPMI 5 mM glucose + 10% FBS, 1.71 µM) | cell viability (RPMI 5 mM glucose + 10% FBS, 5.12 µM) | cell viability (RPMI 5 mM glucose + 10% FBS, 15.4 µM) | cell viability (RPMI 5 mM glucose + 10% FBS, 46.1 µM) | cell viability (RPMI 5 mM glucose + 10% dialyzed FBS, 0.000781 µM) | cell viability (RPMI 5 mM glucose + 10% dialyzed FBS, 0.00234 µM) | cell viability (RPMI 5 mM glucose + 10% dialyzed FBS, 0.00702 µM) | cell viability (RPMI 5 mM glucose + 10% dialyzed FBS, 0.0211 µM) | cell viability (RPMI 5 mM glucose + 10% dialyzed FBS, 0.0632 µM) | cell viability (RPMI 5 mM glucose + 10% dialyzed FBS, 0.19 µM) | cell viability (RPMI 5 mM glucose + 10% dialyzed FBS, 0.569 µM) | cell viability (RPMI 5 mM glucose + 10% dialyzed FBS, 1.71 µM) | cell viability (RPMI 5 mM glucose + 10% dialyzed FBS, 5.12 µM) | cell viability (RPMI 5 mM glucose + 10% dialyzed FBS, 15.4 µM) | cell viability (RPMI 5 mM glucose + 10% dialyzed FBS, 46.1 µM)
C[C@H]([C@H](O)CCC(C)(C)O)[C@H]1CC[C@@]2(O)C/3=C/C(=O)[C@@H]4C[C@@H](O)[C@@H](O)C[C@]4(C)[C@H]3CC[C@]12C | 111% | 119% | 102% | 122% | 103% | 109% | 110% | 112% | 108% | 101% | 106% | 132% | 104% | 113% | 125% | 115% | 113% | 119% | 123% | 125% | 110% | 98% |  |  |  |  |  |  |  |  |  |  | 
C[C@@H]1CC[C@@]2(OC1)O[C@H]3C[C@H]4[C@@H]5C/C=C6/C[C@H](CC[C@]6(C)[C@H]5CC[C@]4(C)[C@H]3[C@@H]2C)O[C@@H]7O[C@H](CO)[C@@H](O[C@@H]8O[C@@H](C)[C@H](O)[C@@H](O)[C@H]8O)[C@H](O)[C@H]7O[C@@H]9O[C@@H](C)[C@H](O)[C@@H](O)[C@H]9O | 92.6% | 79.3% | 97.5% | 110% | 114% | 117% | 118% | 115% | 111% | 73.9% | 8.36% |  |  |  |  |  |  |  |  |  |  |  | 110% | 116% | 114% | 116% | 139% | 104% | 122% | 119% | 119% | 55% | 7.66%
